Measured values taken from patent US20110098284A1, “Methods and compositions for treating pain” (priority 2005, published 2011).
Like-named read-outs stand apart in the source and are kept apart here. Blank lines part the entries; values can stand above or below the compound they belong to.

Legend:
[1] = cited from earlier work; for incidence of injection site pain: diclofenac 75 mg or ketorolac 30 mg IM (Morrow)
[2] = test system: marginal vein of each ear; conditions: for edema at injection site / erythema at injection site: 24 hour observation
[3] = test system: marginal vein of each ear; assay: Histopathological evaluation of injection sites (Example 11); assay type: in vivo, New Zealand White rabbits
Experimental: Injection sites underwent histopathological evaluation.
Thrombosis was recorded for amorphous aggregates of fibrin like material within vascular lumens and variably adherent to vessel walls.

[4] = cited from earlier work
[5] = vs. 0% placebo; P=0.03; cited from earlier work
[6] = CABG study, cited from earlier work
[7] = stored for 12 weeks at 5° C., 25° C./60% RH, 30° C./60% RH, 40° C./75% RH; for original NSAID content on storage: stability indicating HPLC; for visible signs of crystallization, deviation in pH and osmolarity on storage: vials or ampoules sealed under nitrogen
[8] = Treatment A, 5 mg/0.1 mL IV over one minute
[9] = Treatment B, 15 mg/0.3 mL IV over one minute
[10] = 1 mg/kg over 10 min as solution of 25 mg/mL (Campbell and Watters)
[11] = IV using a diluted infusion (Campbell and Watters)

Compound: O=C(c1ccccc1)c1ccc2n1CCC2C(=O)O (stereo not drawn) [ketorolac]
incidence of injection site pain [1]: 3%

edema at injection site [2, 8]: slight | erythema at injection site [2, 8]: well defined | edema at injection site [2, 9]: very slight | erythema at injection site [2, 9]: very slight to moderate to severe
Compound: CC(C(=O)O)c1cccc(C(=O)c2ccccc2)c1 (racemic) [Ketoprofen, (±)-2-(3-benzoylphenyl)propionic acid]
irritation in the ear veins ([2]; Treatment A, 5 mg/0.1 mL IV): produced irritation | irritation in the ear veins ([2]; Treatment B, 15 mg/0.3 mL IV): produced irritation

mean intensity (severity) of edema and infiltrates ([3]; injection site histopathology): intermediate
Compound: CN1C(C(=O)Nc2ccccn2)=C(O)c2ccccc2S1(=O)=O [unsalified piroxicam, 4-hydroxy-2-methyl-N-2-pyridinyl-2H-1,2-benzothiazine-3-carboxamide-1,1-dioxide]
incidence of inflammatory cell infiltrates ([3]; at the end of needle progression and 1 cm away from the end of progression): intermediate

Compound: O=C(O)Cc1ccccc1Nc1c(Cl)cccc1Cl [diclofenac, 2-(2,6-dichlorophenylamino)benzeneacetic acid]
cases of severe local reactions ([1]; IM (Pillans and O'Connor)): six | patients who died ([1]; IM (Pillans and O'Connor)): Two of the six | patients with extensive tissue necrosis at the IM injection site ([1]; IM (Pillans and O'Connor)): Three | patients with necrotizing fasciitis ([1]; IM (Pillans and O'Connor)): three | share of all accepted claims for injection related complications ([1]; IM administration, New Zealand 1992 to 2003): 22.6% | incidence of injection site pain [1]: 31% | patients who developed phlebitis ([4]; 1 mg/kg in 100 mL saline every 12 hours x 2 doses, maxillofacial surgery (Tarkkila)): 10% | incidence of phlebitis, arm [4, 10]: 58% | incidence of phlebitis, hand [4, 10]: 85% | incidence of thrombosis, arm veins [4, 11]: 8% | incidence of thrombosis, hand veins [4, 11]: 38% | patients who developed phlebitis ([4]; after hip replacement surgery, diclofenac 75 mg IV over 30 minutes then 75 mg/15.5 hours, ketoprofen 100 mg over 30 min then 100 mg/15.5 hours (Kostamovaara)): 14% | patients who experienced phlebitis ([4]; after major orthopedic surgery, 0.35 mg/kg IV then 0.90 mcg/min continuous infusion, 6 hours after start (Claeys)): 5% | time of (delayed) venous thrombosis ([4]; diluted in 100 to 200 mL, infused over 15 to 20 minutes (Gopinath)): > 72 h

Compound: CCC(=O)NS(=O)(=O)c1ccc(-c2c(-c3ccccc3)noc2C)cc1 [parecoxib]
sternal wound infections [5]: 3.2% | deaths ([6]; vs. 0 placebo): 4 | cerebrovascular events ([6]; vs. 0.7% placebo): 2.6% | incidence of myocardial infarctions ([6]; vs. 0.7% placebo): 1.9%

original NSAID content on storage [7]: 100%±5%
Compound: CN1C(C(=O)Nc2ccccn2)=C(O)c2sccc2S1(=O)=O.CN1C(C(=O)Nc2ccccn2)=C(O)c2sccc2S1(=O)=O.NCCN [tenoxicam ethylenediamine]
visible signs of crystallization, deviation in pH and osmolarity on storage [7]: no visible signs of crystallization or significant deviation in pH and osmolarity

original NSAID content on storage [7]: 100%±5% | mean intensity (severity) of edema and infiltrates ([3]; rabbit, in vivo): none to negligible
Compound: CN1C(C(=O)Nc2ccccn2)=C(O)c2ccccc2S1(=O)=O.NCCN [piroxicam-ethylenediamine]
visible signs of crystallization, deviation in pH and osmolarity on storage [7]: no visible signs of crystallization or significant deviation in pH and osmolarity | incidence of inflammatory cell infiltrates ([3]; rabbit, in vivo): low
